Measured values: PMC8466554, “Heteroaryl-Ethylenes as New Lead Compounds in the Fight against High Priority Bacterial Strains” (Antibiotics, 2021)
Where “and” joins values, the source holds several entries; their conditions need not be identical. Equal values may be shown once. Read-outs that look alike come from different tables or passages of the source.

Columns and labels:
S.aureus Mu50-VISA = assay: MIC and MBC microtiter plate assay; format: cell-based, Staphylococcus aureus
S.aureus USA300-CAMRSA = assay: MIC and MBC microtiter plate assay; format: cell-based, Staphylococcus aureus
S.aureus ATCC29213-MSSA = assay: MIC and MBC microtiter plate assay; format: cell-based, Staphylococcus aureus
S.aureus ATCC12598-MSSA = assay: MIC and MBC microtiter plate assay, also with different inocula; format: cell-based, Staphylococcus aureus
[1] = test system: E. faecalis ATCC51299-VRE; assay: as above; format: cell-based
[2] = test system: E. faecalis ATCC29212-VSE; assay: MIC and MBC microtiter plate assay; format: cell-based
A. baumannii ATCC17978 = assay: MIC and MBC microtiter plate assay, also with different inocula; format: cell-based, Acinetobacter baumannii; details: A. baumannii ATCC17978
E. coli ATCC25922 = assay: as above; format: cell-based, Escherichia coli
P. aeruginosa ATCC27853 = assay: MIC microtiter plate assay; format: cell-based, Pseudomonas aeruginosa
K. pneumoniae ATCC700603 = assay: MIC microtiter plate assay; format: cell-based, Klebsiella pneumoniae
[3] = test system: K. pneumoniae ATCC BAA-2814; assay: MIC microtiter plate assay; format: cell-based, Klebsiella pneumoniae; details: K. pneumoniae ATCC BAA-2814 (MDR strain)
[4] = test system: Gram-positive and Gram-negative ATCC strains; assay: MIC and MBC, summary over Gram-positive and Gram-negative strains; format: cell-based; details: by MBC/MIC ratio
CaCo-2 cells = assay: MTT cytotoxicity assay; format: cell-based, human; details: 24 h of incubation relative to untreated controls
Procedure: To evaluate the biological activity of the PBn series, compounds were screened for toxicity against the colon-rectal cancer cell line CaCo-2 (ATCC HTB-37). These human cancer cells were treated with solutions of the compounds at decreasing concentrations, starting from 100 μM up to 0.01 μM. The reference compound used for these assays was 5-Fluorouracil (5-Fu), a pyrimidine analogue belonging to the family of antimetabolite. […] Briefly, human colorectal adenocarcinoma cells (CaCo-2 HTB-37^TM Colorectal Adenocarcinoma Human, American Type Culture Collection, Manassas, VA, USA) were grown in Dulbecco’s MEM (DMEM) with 10% heat-inactivated fetal bovine serum, 2 mM L-Alanyl-L-Glutamine, penicillin-streptomycin (50 units-50 μg for mL) and incubated at 37 °C in a humidified atmosphere of 5% CO2, 95% air. CaCo-2 cells were plated in 96 well pates and incubated at 37 °C. The PBn series compounds and 5-FU were prepared as a 1 mM solution in 10 mL with 0.01% DMSO. Then, 24 h after plating, cells were treated with 20 μL of each solution. Untreated cells were used as controls. […] The results were read on a multiwell scanning spectrophotometer (AF2200 plate reader, Eppendorf, Milan, Italy), using a wavelength of 569 nm.

[5] = S.aureus ATCC12598-MSSA, value in brackets
[6] = E. faecalis ATCC51299-VRE, value in brackets

Structure (SMILES): Clc1ccc(Cl)c(-c2ccc(/C=C/c3cc[n+](-c4ncccn4)cc3)o2)c1.F[P-](F)(F)(F)(F)F [PB5]
- MBC (S.aureus Mu50-VISA): 4 µg/mL
- MIC (S.aureus Mu50-VISA): 2 µg/mL
- MBC (S.aureus Mu50-VISA; value in brackets): 7.40 µM
- MIC (S.aureus Mu50-VISA; value in brackets): 3.70 µM
- MBC (S.aureus USA300-CAMRSA): 4 µg/mL
- MBC (S.aureus USA300-CAMRSA; value in brackets): 7.40 µM
- MIC (S.aureus USA300-CAMRSA; value in brackets): 0.93 µM
- MBC (S.aureus ATCC29213-MSSA): 4 µg/mL
- MIC (S.aureus ATCC29213-MSSA): 1 µg/mL
- MBC (S.aureus ATCC29213-MSSA; value in brackets): 7.40 µM
- MIC (S.aureus ATCC29213-MSSA; value in brackets): 1.85 µM
- MIC (S.aureus ATCC12598-MSSA; S. aureus ATCC12598, inoculum 1.00101 (1 × 10^1 CFU/mL)): 0.03 mg/L and 0.06 μM
- MIC (S.aureus ATCC12598-MSSA; S. aureus ATCC12598, inoculum 1.00102 (1 × 10^2 CFU/mL)): 0.03 mg/L and 0.06 μM
- MIC (S.aureus ATCC12598-MSSA; S. aureus ATCC12598, inoculum 1.00103 (1 × 10^3 CFU/mL)): 0.06 μM and 0.03 mg/L
- MIC (S.aureus ATCC12598-MSSA; S. aureus ATCC12598, inoculum 1.00104 (1 × 10^4 CFU/mL)): 0.06 mg/L and 0.12 μM
- MIC (S.aureus ATCC12598-MSSA; S. aureus ATCC12598, inoculum 1.00105 (1 × 10^5 CFU/mL, standard)): 4 mg/L and 7.40 μM
- MIC (S.aureus ATCC12598-MSSA; S. aureus ATCC12598, inoculum 1.00106 (1 × 10^6 CFU/mL)): 4 mg/L and 7.40 μM
- MIC (S.aureus ATCC12598-MSSA; S. aureus ATCC12598, inoculum 1.00107 (1 × 10^7 CFU/mL)): 8 mg/L and 14.81 μM
- MBC (S.aureus ATCC12598-MSSA; S.aureus ATCC12598-MSSA): 4 µg/mL
- MIC (S.aureus ATCC12598-MSSA; S.aureus ATCC12598-MSSA): 4 mg/L
- MBC (S.aureus ATCC12598-MSSA; [5]): 7.40 µM
- MIC (S.aureus ATCC12598-MSSA; [5]): 7.40 µM
- MBC ([1]; E. faecalis ATCC51299-VRE): 128 µg/mL
- MIC ([1]; E. faecalis ATCC51299-VRE): 4 mg/L
- MBC [1, 6]: 236.94 µM
- MIC [1, 6]: 7.40 µM
- MIC ([1]; E. faecalis ATCC51299, inoculum 1.00101 (1 × 10^1 CFU/mL)): 0.5 mg/L and 0.93 μM
- MIC ([1]; E. faecalis ATCC51299, inoculum 1.00102 (1 × 10^2 CFU/mL)): 1 mg/L and 1.85 μM
- MIC ([1]; E. faecalis ATCC51299, inoculum 1.00103 (1 × 10^3 CFU/mL)): 1 mg/L and 1.85 μM
- MIC ([1]; E. faecalis ATCC51299, inoculum 1.00104 (1 × 10^4 CFU/mL)): 1 mg/L and 1.85 μM
- MIC ([1]; E. faecalis ATCC51299, inoculum 1.00105 (1 × 10^5 CFU/mL, standard)): 4 mg/L and 7.40 μM
- MIC ([1]; E. faecalis ATCC51299, inoculum 1.00106 (1 × 10^6 CFU/mL)): 4 mg/L and 7.40 μM
- MIC ([1]; E. faecalis ATCC51299, inoculum 1.00107 (1 × 10^7 CFU/mL)): 4 mg/L and 7.40 μM
- MBC [2]: 128 µg/mL
- MIC [2]: 4 µg/mL
- MBC ([2]; value in brackets): 236.94 µM
- MIC ([2]; value in brackets): 7.40 µM
- MIC (A. baumannii ATCC17978): > 128 µg/mL
- MIC (A. baumannii ATCC17978; value in brackets): > 236.94 µM
- MIC (E. coli ATCC25922): 32 µg/mL
- MIC (E. coli ATCC25922; value in brackets): 59.24 µM
- MIC (P. aeruginosa ATCC27853): > 128 µg/mL
- MIC (P. aeruginosa ATCC27853; value in brackets): > 236.94 µM
- MIC (K. pneumoniae ATCC700603): > 128 µg/mL
- MIC (K. pneumoniae ATCC700603; value in brackets): > 236.94 µM
- MIC [3]: > 128 µg/mL
- MIC ([3]; value in brackets): > 236.94 µM
- bactericidal/bacteriostatic activity [4]: strain-dependent bactericidal/bacteriostatic activity
- IC50 (CaCo-2 cells): 3.9 µM

Structure (SMILES): C[n+]1ccc(/C=C/c2ccc(-c3cc(Cl)ccc3Cl)o2)cc1.F[P-](F)(F)(F)(F)F [PB6]
- MIC (S.aureus Mu50-VISA): 4 µg/mL
- MIC (S.aureus Mu50-VISA; value in brackets): 8.73 µM
- MIC (S.aureus USA300-CAMRSA): 4 µg/mL
- MIC (S.aureus USA300-CAMRSA; value in brackets): 8.73 µM
- MIC (S.aureus ATCC29213-MSSA): 4 µg/mL
- MIC (S.aureus ATCC29213-MSSA; value in brackets): 8.73 µM
- MIC (S.aureus ATCC12598-MSSA; S.aureus ATCC12598-MSSA): 8 mg/L
- MIC (S.aureus ATCC12598-MSSA; [5]): 17.46 µM
- MIC ([1]; E. faecalis ATCC51299-VRE): 32 mg/L
- MIC [1, 6]: 69.85 µM
- MIC [2]: 32 µg/mL
- MIC ([2]; value in brackets): 69.85 µM
- MIC (A. baumannii ATCC17978): 64 µg/mL
- MIC (E. coli ATCC25922): > 128 µg/mL
- MIC (E. coli ATCC25922; value in brackets): > 279.40 µM
- MIC (P. aeruginosa ATCC27853): > 128 µg/mL
- MIC (P. aeruginosa ATCC27853; value in brackets): > 279.40 µM
- MIC (K. pneumoniae ATCC700603): > 128 µg/mL
- MIC (K. pneumoniae ATCC700603; value in brackets): > 279.40 µM
- MIC [3]: > 128 µg/mL
- MIC ([3]; value in brackets): > 279.40 µM
- bactericidal/bacteriostatic activity [4]: strain-dependent bactericidal/bacteriostatic activity
- IC50 (CaCo-2 cells): 6.79 µM and 6.8 µM
